The text below walks through data of patent publication US20220323406A1, “METHODS AND COMPOSITIONS FOR DIFFERENTIATING STEM CELLS” (Massachusetts Institute of Technology, priority 2019, published 2022).

Where a name gives a salt, the structure may show the parent alone.

Test [1] relates to ENR+CD organoids (ISC to Paneth cell differentiation). Nature of the test: Primary screen: CCh-stimulated lysozyme secretion LYZ.S, 2.5-D 384-well ENR+CD organoid differentiation. The test is classed as cell-based, mouse. As to conditions: primary screen. The source says: (§1) High-throughput screening.
The test system of another test is ENR+CD organoids. Briefly: Primary screen: ATP (CellTiter-Glo 3D, CTG) cell number/viability, 2.5-D 384-well ENR+CD organoids.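 For all read-outs here: compounds given at plating and again on day 3 over a 6-day differentiation from ENR+CV stem-cell-enriched precursors, ATP measured on day 6, plate median as control.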 The following applies: primary screen; for Z.CTG: standard z score. Background: Cellular ATP, detected with luciferase, serves as a proxy for viable cell number.
Test [2] relates to ENR+CD organoids (ISC to Paneth cell differentiation). Nature of the test: Primary screen: basal (non-stimulated) lysozyme secretion LYZ.NS, 2.5-D 384-well ENR+CD organoid differentiation. In kind it is cell-based, mouse.
Excerpt: as §1

[3] abbreviates: dose 0.08 uM, FC vs plate median.
[4] abbreviates: dose 0.40 uM, FC vs plate median.
Setting [5] is: dose 2.00 uM, FC vs plate median.
Setting [6] is: dose 10.00 uM, FC vs plate median.
Where [7] appears, read: primary screen, dose 0.08 uM, standard z score.
[8] abbreviates: primary screen, dose 0.40 uM, standard z score.
[9] abbreviates: primary screen, dose 2.00 uM, standard z score.
Setting [10] is: primary screen, dose 10.00 uM, standard z score.
[11] abbreviates: primary screen; dose 0.08 uM; FC vs plate median.
The mark [12] stands for this setting: primary screen; dose 0.40 uM; FC vs plate median.
[13] abbreviates: primary screen; dose 2.00 uM; FC vs plate median.
Setting [14] is: primary screen; dose 10.00 uM; FC vs plate median.
[15] abbreviates: dose 0.08 uM, FC relative to plate median.
Where [16] appears, read: dose 0.40 uM, FC relative to plate median.
Where [17] appears, read: dose 2.00 uM, FC relative to plate median.
Where [18] appears, read: dose 10.00 uM, FC relative to plate median.

Take `CC(C)(F)C[C@H](N[C@@H](c1ccc(-c2ccc(S(C)(=O)=O)cc2)cc1)C(F)(F)F)C(=O)NC1(C#N)CC1` [Odanacatib (MK-0822)]: the Dose.FC.LYZ.S in test [1] (setting [3]) is listed as 0.091 log2 fold change; in test [1] (setting [4]), 0.170 log2 fold change; in test [1] (setting [5]), 0.036 log2 fold change; in test [1] (setting [6]), −0.074 log2 fold change. Also, the Z.CTG was 0.285 in the test on ENR+CD organoids (dose 0.08 uM), 0.496 with ENR+CD organoids (dose 0.40 uM), −0.020 with ENR+CD organoids (dose 2.00 uM) and 0.015 in the test with ENR+CD organoids (dose 10.00 uM). Besides, the Dose.FC.CTG in the test on ENR+CD organoids (setting [3]) is recorded as 0.119 log2 fold change; with ENR+CD organoids (setting [4]), 0.208 log2 fold change; in the test with ENR+CD organoids (setting [5]), −0.008 log2 fold change; with ENR+CD organoids (setting [6]), 0.006 log2 fold change. For the same compound, the Z.LYZ.NS in test [2] (setting [7]) is recorded as 0.752; in test [2] (setting [8]), 1.409; in test [2] (setting [9]), 0.212; in test [2] (setting [10]), −0.307. For the same compound, the Dose.FC.LYZ.NS in test [2] (setting [11]) is on record as 0.086 log2 fold change; in test [2] (setting [12]) it was 0.162 log2 fold change; in test [2] (setting [13]), 0.024 log2 fold change; in test [2] (setting [14]), −0.035 log2 fold change.

Take `C[C@](O)(COc1ccc(C#N)cc1)C(=O)Nc1ccc(C#N)c(C(F)(F)F)c1` [MK-2866 (GTx-024)]: the Dose.FC.LYZ.S in test [1] (setting [3]) is 0.072 log2 fold change; in test [1] (setting [4]) it was 0.050 log2 fold change; in test [1] (setting [5]), 0.078 log2 fold change; in test [1] (setting [6]) it was −0.072 log2 fold change. Also, the Z.CTG in the test with ENR+CD organoids (dose 0.08 uM) is 0.003; in the test on ENR+CD organoids (dose 0.40 uM), −0.474; with ENR+CD organoids (dose 2.00 uM), −0.210; with ENR+CD organoids (dose 10.00 uM), −0.877. Also, the Dose.FC.CTG in the test with ENR+CD organoids (setting [3]) was 0.001 log2 fold change; with ENR+CD organoids (setting [4]), −0.198 log2 fold change; in the test with ENR+CD organoids (setting [5]) it was −0.088 log2 fold change; in the test on ENR+CD organoids (setting [6]) it was −0.367 log2 fold change. For the same compound, the Z.LYZ.NS was 0.309 in test [2] (setting [7]), 0.241 in test [2] (setting [8]), 0.310 in test [2] (setting [9]) and −0.510 in test [2] (setting [10]). Also, the Dose.FC.LYZ.NS in test [2] (setting [11]) was 0.035 log2 fold change; in test [2] (setting [12]), 0.028 log2 fold change; in test [2] (setting [13]), 0.036 log2 fold change; in test [2] (setting [14]) it was −0.059 log2 fold change.

With `CO[C@H]1C[C@@H]2CC[C@@H](C)[C@@](O)(O2)C(=O)C(=O)N2CCCC[C@H]2C(=O)O[C@H]([C@H](C)C[C@@H]2CC[C@@H](OP(C)(C)=O)[C@H](OC)C2)CC(=O)[C@H](C)/C=C(\C)[C@@H](O)[C@@H](OC)C(=O)[C@H](C)C[C@H](C)/C=C/C=C/C=C/1C` [Ridaforolimus (Deforolimus, MK-8669)], the Dose.FC.LYZ.S is 0.050 log2 fold change in test [1] (setting [15]), 0.069 log2 fold change in test [1] (setting [16]), 0.019 log2 fold change in test [1] (setting [17]) and 0.039 log2 fold change in test [1] (setting [18]). Also, the Dose.FC.CTG amounted to 0.423 log2 fold change in the test with ENR+CD organoids (setting [15]), 0.066 log2 fold change in the test on ENR+CD organoids (setting [16]), 0.276 log2 fold change in the test on ENR+CD organoids (setting [17]) and 0.211 log2 fold change in the test with ENR+CD organoids (setting [18]). Moreover, the Z.CTG amounted to 1.011 in the test with ENR+CD organoids (dose 0.08 uM), 0.157 in the test with ENR+CD organoids (dose 0.40 uM), 0.659 with ENR+CD organoids (dose 2.00 uM) and 0.505 in the test with ENR+CD organoids (dose 10.00 uM). Further, the Dose.FC.LYZ.NS turned out to be 0.005 log2 fold change in test [2] (primary screen, dose 0.08 uM, FC relative to plate median); 0.116 log2 fold change in test [2] (primary screen, dose 0.40 uM, FC relative to plate median); 0.074 log2 fold change in test [2] (primary screen, dose 2.00 uM, FC relative to plate median); 0.027 log2 fold change in test [2] (primary screen, dose 10.00 uM, FC relative to plate median). Further, the Z.LYZ.NS in test [2] (setting [7]) worked out at 0.041; in test [2] (setting [8]) it was 1.012; in test [2] (setting [9]), 0.646; in test [2] (setting [10]), 0.237.

For the compound `COc1cccc2c1C(=O)c1c(O)c3c(c(O)c1C2=O)C[C@@](O)(C(C)=O)C[C@@H]3O[C@H]1C[C@H](N)[C@H](O)[C@H](C)O1` [Daunorubicin HCl], the Dose.FC.LYZ.S in test [1] (dose 0.08 uM) is −0.096 log2 fold change; in test [1] (dose 0.40 uM) it was −0.329 log2 fold change; in test [1] (dose 2.00 uM) it was −0.343 log2 fold change; in test [1] (dose 10.00 uM), −0.374 log2 fold change. Further, the Dose.FC.CTG is −0.467 log2 fold change in the test on ENR+CD organoids (dose 0.08 uM), −0.601 log2 fold change in the test on ENR+CD organoids (dose 0.40 uM), −0.817 log2 fold change in the test with ENR+CD organoids (dose 2.00 uM) and −1.100 log2 fold change with ENR+CD organoids (dose 10.00 uM). In addition, the Dose.FC.LYZ.NS in test [2] (primary screen, dose 0.08 uM) is on record as −0.136 log2 fold change; in test [2] (primary screen, dose 0.40 uM), −0.241 log2 fold change; in test [2] (primary screen, dose 2.00 uM), −0.262 log2 fold change; in test [2] (primary screen, dose 10.00 uM), −0.260 log2 fold change. Also, the Z.LYZ.NS in test [2] (primary screen, standard z score, dose 0.08 uM) is reported as −1.188; in test [2] (primary screen, standard z score, dose 0.40 uM) it was −2.099; in test [2] (primary screen, standard z score, dose 2.00 uM) it was −2.280; in test [2] (primary screen, standard z score, dose 10.00 uM), −2.262.
